Source: US20090118253A1, “COMPOSITIONS AND METHODS FOR TREATING DYSFUNCTIONAL UTERINE BLEEDING” (REPROS THERAPEUTICS INC., priority 2007, published 2009)

Key:
glucocorticoid receptor = molecular target: T1, glucocorticoid receptor (Homo sapiens, UniProt P04150); settings: compared with parent CDB-4124; cited from earlier work
T1 sequence (P04150 1-777): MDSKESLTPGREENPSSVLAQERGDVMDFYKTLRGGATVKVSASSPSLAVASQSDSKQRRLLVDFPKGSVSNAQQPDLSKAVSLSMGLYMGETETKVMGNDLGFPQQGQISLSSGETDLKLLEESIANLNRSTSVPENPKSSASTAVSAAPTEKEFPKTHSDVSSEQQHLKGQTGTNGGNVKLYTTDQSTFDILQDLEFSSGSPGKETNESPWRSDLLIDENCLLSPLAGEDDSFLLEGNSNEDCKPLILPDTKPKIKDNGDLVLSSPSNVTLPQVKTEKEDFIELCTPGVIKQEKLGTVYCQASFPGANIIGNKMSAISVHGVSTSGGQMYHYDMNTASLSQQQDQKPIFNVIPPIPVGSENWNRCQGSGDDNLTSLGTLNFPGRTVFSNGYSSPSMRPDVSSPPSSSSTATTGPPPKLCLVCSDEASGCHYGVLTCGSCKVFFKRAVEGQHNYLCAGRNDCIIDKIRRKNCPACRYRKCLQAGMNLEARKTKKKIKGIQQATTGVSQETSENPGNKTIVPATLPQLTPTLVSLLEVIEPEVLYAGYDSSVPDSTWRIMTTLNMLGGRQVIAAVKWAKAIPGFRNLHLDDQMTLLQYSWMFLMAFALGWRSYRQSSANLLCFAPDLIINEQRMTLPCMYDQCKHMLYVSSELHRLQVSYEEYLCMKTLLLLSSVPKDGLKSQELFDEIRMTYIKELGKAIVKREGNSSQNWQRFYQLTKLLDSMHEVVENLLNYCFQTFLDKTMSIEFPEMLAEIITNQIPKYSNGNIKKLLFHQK

[1] = Urinary progesterone levels (luteal phase) in cynomolgus monkeys; format: in vivo, Cynomolgus monkeys (Macaca fascicularis); settings: n=14 per group; CDB-4124 or RU-486 oral 1.0 mg/kg/day for 36 weeks; Lupron IM once per month
Method: Cynomolgus monkeys (Macaca fascicularis) (n=14) were treated orally for 36 weeks with CDB-4124 or RU-486 at 1.0 mg/kg/day or with placebo (control). Another group (n=14) received Lupron® IM once per month. Urinary progesterone levels were measured for each animal for one month during the middle of the study (weeks 14-17) and for the last month of the study (weeks 33-36).

[2] = Urinary estrogen levels (follicular phase) in cynomolgus monkeys; format: in vivo, Cynomolgus monkeys (Macaca fascicularis); parameters: Urinary estrogen, follicular phase, Mean: unit not given here; settings: for Urinary estrogen, follicular phase, Mean: CDB-4124 or RU-486 oral 1.0 mg/kg/day, Lupron IM once per month
Method: Cynomolgus monkeys (Macaca fascicularis) (n=14) were treated orally for 36 weeks with CDB-4124 or RU-486 at 1.0 mg/kg/day or with placebo (control). Another group (n=14) received Lupron® IM once per month. Urinary progesterone levels were measured for each animal for one month during the middle of the study (weeks 14-17) and for the last month of the study (weeks 33-36). The results are presented below:
Urinary estrogen levels were measured for each animal of Example 6 for one month during the middle of the study (weeks 14-17) and for the last month of the study (weeks 33-36). The follicular phase results are based on 35 baseline ovulating cycles.

[3] = test system: Cynomolgus monkey endometrial epithelia, uterus stroma and breast; assay: BrdU incorporation, tissue proliferation in cynomolgus monkeys; format: in vivo, Cynomolgus monkeys (Macaca fascicularis); settings: week 36, % cells positive for incorporation of BrdU, three animals per group
Method: At week 36, three animals from each group of Example 6 were injected within 24 hours of sacrifice with the thymidine analog bromodeoxyuridine (BrdU), a marker of proliferating cells and their progeny, to assess tissue proliferation. Full thickness uterine sections were stained and examined microscopically for evidence of proliferation in terms of the % cells positive for incorporation of BrdU: […]

[4] = test system: Cynomolgus monkey endometrial epithelium, uterus stroma and breast; assay: TUNEL apoptosis in cynomolgus monkey tissue; format: in vivo, Cynomolgus monkeys (Macaca fascicularis); settings: week 36, percent apoptotic cells
Method: Apoptosis was assessed in tissue from the same animals on slides by the terminal deoxynucleotidyl transferase mediated dUTP-biotin nick end labeling (TUNEL) technique.

[5] = test system: pre-menopausal adult women diagnosed with endometriosis; assay: Six month endometriosis study: pain diaries and pain intensity surveys; format: in vivo, human
Method: Pain reduction also occurred more rapidly than with the active control, Lucrin®. The response of pain to treatment in this study was analyzed in two ways. Patients in the study maintained daily pain diaries to record the severity and frequency of pain. In addition, at each office visit, patients filled out endometriosis symptom surveys that included a questionnaire that evaluated intensity of pain on a bad day on a scale of 0-10 with 10 being the greatest intensity. […] This decrease in duration of pain was statistically better (p=0.0012) than the 117.8 (74%; standard deviation 51.4 days) pain free days achieved with Lucrin n. […] Patients on CDB-4124 12.5 mg and 25 mg doses had 115.9 (66%; standard deviation 69.2 days) and 133.6 (75%; standard deviation 27.4 days) pain free days, respectively. […] The 25 mg and 12.5 mg doses of CDB-4124 were not statistically different from Lucrin®. […] The intensity of pain was asked by the question: “On a scale of 1-10, with 0 being no pain and 10 being extreme pain, how intense was your pain on a bad day?” The mean scores for intensity of pain at baseline were 6.3 for the CDB-4124 groups and 6.1 for the Lucrin® group. […] At month three all four active treatment groups had satistically significant reduction in pain compared with baseline, with the following scores: 3.7 (p=0.03) for 12.5 mg CDB-4124, 3.2 (p=0.03) for 25 mg CDB-4124, 1.6 (p=0.015) for 50 mg CDB-4124 and 1.5 (p=0.016) for Lucrin®. These dose related reductions continued until month six when the values for pain intensity were 2.0 (p=0.008), 2.8 (p=0.023), 0.6 (p=0.004) and 0.7 (p=0.016), respectively. Two months after stopping treatment pain returned and was of similar intensity in all four treatment groups.

human endometrium = assay: Six month endometriosis study: ultrasound measurements of endometrial thickness; format: in vivo
Source text: Women in the study were closely monitored for changes in the structure of the endometrium. […] Comparisons were made to both baseline and visit one ultrasound measurements of endometrial thickness. […]

[6] = in vivo
Method: Thirty-nine pre-menopausal adult women diagnosed with endometriosis were the subject of a six month study of Proellex™ (CDB-4124) in the treatment of endometriosis. The study included three dose levels of CDB-4124 as well as a positive control arm. The positive control was Lucrin®, a GnRH agonist, commonly used for the treatment of endometriosis (also known as Lupron®). CDB-4124 was administered in a double blinded fashion as a daily oral capsule at dosages of 12.5mg/day (n=2), 25mg/day (n=3) and 50mg/day (n=3). Another group (n=4) were injected with a slow release formulation of Lucrin® once per month as a positive control.

In the case of CNc1ccc([C@H]2C[C@@]3(C)[C@@H](CC[C@]3(OC(C)=O)C(=O)COC)[C@@H]3CCC4=CC(=O)CCC4=C32)cc1 [CDB-4453, 21-methoxy-17α-acetoxy-11β-(4-N-methylaminophenyl)-19-norpregna-4,9-diene-3,20-dione], the anti-glucocorticoid activity (glucocorticoid receptor) is listed as “even lower anti-glucocorticoid activity than its parent”.
For CCNC(=O)[C@@H]1CCCN1C(=O)[C@H](CCCNC(=N)N)NC(=O)[C@H](CC(C)C)NC(=O)[C@@H](CC(C)C)NC(=O)[C@H](Cc1ccc(O)cc1)NC(=O)[C@H](CO)NC(=O)[C@H](Cc1c[nH]c2ccccc12)NC(=O)[C@H](Cc1c[nH]cn1)NC(=O)[C@@H]1CCC(=O)N1 [Lupron ®, leuprolide acetate], the “Decrease in luteal phase progesterone (number of animals)” value [1] was 13, the “No decrease in luteal phase progesterone (number of animals)” value [1] was 1 and the “Follicular phase estrogen Lower?” value ([2]; Week 18) was “Yes”. For the same compound, the “Urinary estrogen, follicular phase, Mean” value ([2]; Week 18) was 49.9, the “Follicular phase estrogen Lower?” value ([2]; Week 36) was “Yes” and the “Urinary estrogen, follicular phase, Mean” value ([2]; Week 36) was 41.7. The “Breast Brdu-%” value [3] was 0.3 ± 0.1%, the “Uterus epithelium Brdu-%” value [3] was 3.1 ± 0.8% and the “Uterus stroma Brdu-%” value [3] was 2.2 ± 1.0%. For the same compound, the “Breast Apo %” value [4] was 1.4 ± 0.7%, the “Uterus epithelium Apo %” value [4] was 0.2 ± 0.1% and the “Uterus stroma Apo %” value [4] was 0.2 ± 0.1%. For the same compound, the “mean score for intensity of pain on a bad day (scale 0-10)” value ([5]; baseline) was 6.1, the “score for intensity of pain on a bad day (scale 0-10)” value ([5]; month six, Lucrin once per month) was 0.7 and the “score for intensity of pain on a bad day (scale 0-10)” value ([5]; month three, Lucrin once per month) was 1.5. For the same compound, the “pain free days over the 180 day treatment period” value ([5]; women, Lucrin once per month) was 117.8 days, the “pain free days, percent” value ([5]; women, Lucrin once per month, 180 day treatment period) was 74% and the “days of pain over the first three months” value ([5]; women, Lucrin slow release injection once per month) was 19.4 days. For the same compound, the “thickening of the endometrium after three months” value (human endometrium; Lucrin, five women) was “did not have a thickening of the endometrium”, the “Endometrium (mm), 1st dose” value (human endometrium; Lupron once per month, 1st dose visit) was 7.5 mm and the “Endometrium (mm), 3 months” value (human endometrium; Lupron once per month, 3 months) was 2.75 mm. For the same compound, the “Endometrium (mm), screening” value (human endometrium; Lupron once per month, screening (baseline)) was 7.9 mm, the “biomarkers of bone resorption compared with baseline” value [6] was “statistically significant increase” and the estrogen level [6] was less than 20 pg/mL.
